{
  "source": "paper PMC3420346",
  "about": "(Bioorganic & medicinal chemistry, 2012)",
  "origin": "cited, not measured here",
  "key": {"[1]": {"details": "compared with related 9-riboside derivatives"}},
  "data": [
    {"molecule": "CNc1nc(I)nc2c1ncn2[C@H]1C[C@H](OP(=O)(O)O)[C@]2(COP(=O)(O)O)C[C@H]12", "note": "[Compound 1, (1′R,2′S,4′S,5′S)-4-(2-iodo-6-methylamino-purin-9-yl)-1-[(phosphato)-methyl]-2-(phosphato)-bicyclo[3.1.0]hexane]", "values": [
      {"measurement": "Resistance to degradation", "setting": "[1]", "value": "more resistant to degradation than related 9-riboside derivatives"},
      {"measurement": "Reduction of thrombus formation in vivo", "setting": "thrombus formation", "value": "effective in reducing thrombus formation in vivo"}
    ]}
  ]
}
